Data from ChEMBL document CHEMBL3045804, “Synthesis and Herbicidal Activity of 2-Benzylamino-4-methyl-6-trifluoromethyl-1, 3, 5-triazune Derivatives” (J Pestic Sci, 1998).

Tests used:
Type in all cases: functional
[1] = system: Schoenoplectiella juncoides; test: Herbicidal activity against Schoenoplectiella juncoides assessed as killing at 100 g/10 acre measured after 3 weeks by pre-emergence/paddy application test
Pontederia vaginalis [2] = test: Herbicidal activity against Monochoria vaginalis assessed as killing at 100 g/10 acre measured after 3 weeks by pre-emergence/paddy application test
Echinochloa oryzicola [3] = test: Herbicidal activity against Echinochloa oryzicola assessed as killing at 100 g/10 acre measured after 3 weeks by pre-emergence/paddy application test
Stellaria media [4] = test: Herbicidal activity against Stellaria media assessed as killing at 100 g/10 acre measured after 3 weeks by pre-emergence/field application test
Digitaria ciliaris [5] = test: Herbicidal activity against Digitaria ciliaris assessed as killing at 100 g/10 acre measured after 3 weeks by pre-emergence/field application test
Echinochloa crus-galli [6] = test: Herbicidal activity against Echinochloa crus-galli (barnyard grass) assessed as killing at 100 g/10 acre measured after 3 weeks by pre-emergence/field application test
Rotala indica [7] = test: Herbicidal activity against Rotala indica assessed as killing at 100 g/10 acre measured after 3 weeks by pre-emergence/paddy application test
Chenopodium album [8] = test: Herbicidal activity against Chenopodium album assessed as killing at 100 g/10 acre measured after 3 weeks by post-emergence/foliar application test
Stellaria media [9] = test: Herbicidal activity against Stellaria media assessed as killing at 100 g/10 acre measured after 3 weeks by post-emergence/foliar application test
Digitaria ciliaris [10] = test: Herbicidal activity against Digitaria ciliaris assessed as killing at 100 g/10 acre measured after 3 weeks by post-emergence/foliar application test
Echinochloa crus-galli [11] = test: Herbicidal activity against Echinochloa crus-galli (barnyard grass) assessed as killing at 100 g/10 acre measured after 3 weeks by post-emergence/foliar application test
Chenopodium album [12] = test: Herbicidal activity against Chenopodium album assessed as killing at 100 g/10 acre measured after 3 weeks by pre-emergence/field application test
Rotala indica [13] = test: Herbicidal activity against Rotala indica assessed as killing at 800 g/10 acre measured after 3 weeks by pre-emergence/paddy application test
[14] = system: Schoenoplectiella juncoides; test: Herbicidal activity against Schoenoplectiella juncoides assessed as killing at 800 g/10 acre measured after 3 weeks by pre-emergence/paddy application test
Pontederia vaginalis [15] = test: Herbicidal activity against Monochoria vaginalis assessed as killing at 800 g/10 acre measured after 3 weeks by pre-emergence/paddy application test
Echinochloa oryzicola [16] = test: Herbicidal activity against Echinochloa oryzicola assessed as killing at 800 g/10 acre measured after 3 weeks by pre-emergence/paddy application test
Chenopodium album [17] = test: Herbicidal activity against Chenopodium album assessed as killing at 800 g/10 acre measured after 3 weeks by pre-emergence/field application test
Stellaria media [18] = test: Herbicidal activity against Stellaria media assessed as killing at 800 g/10 acre measured after 3 weeks by pre-emergence/field application test
Digitaria ciliaris [19] = test: Herbicidal activity against Digitaria ciliaris assessed as killing at 800 g/10 acre measured after 3 weeks by pre-emergence/field application test
Echinochloa crus-galli [20] = test: Herbicidal activity against Echinochloa crus-galli (barnyard grass) assessed as killing at 800 g/10 acre measured after 3 weeks by pre-emergence/field application test
Chenopodium album [21] = test: Herbicidal activity against Chenopodium album assessed as killing at 400 g/10 acre measured after 3 weeks by post-emergence/foliar application test
Digitaria ciliaris [22] = test: Herbicidal activity against Digitaria ciliaris assessed as killing at 400 g/10 acre measured after 3 weeks by post-emergence/foliar application test
Echinochloa crus-galli [23] = test: Herbicidal activity against Echinochloa crus-galli (barnyard grass) assessed as killing at 400 g/10 acre measured after 3 weeks by post-emergence/foliar application test
Stellaria media [24] = test: Herbicidal activity against Stellaria media assessed as killing at 400 g/10 acre measured after 3 weeks by post-emergence/foliar application test

Row | SMILES | Activity [1] | Activity (Pontederia vaginalis [2]) | Activity (Echinochloa oryzicola [3]) | Activity (Stellaria media [4]) | Activity (Digitaria ciliaris [5]) | Activity (Echinochloa crus-galli [6]) | Activity (Rotala indica [7]) | Activity (Chenopodium album [8]) | Activity (Stellaria media [9]) | Activity (Digitaria ciliaris [10]) | Activity (Echinochloa crus-galli [11]) | Activity (Chenopodium album [12]) | Activity (Rotala indica [13]) | Activity [14] | Activity (Pontederia vaginalis [15]) | Activity (Echinochloa oryzicola [16]) | Activity (Stellaria media [18]) | Activity (Digitaria ciliaris [19]) | Activity (Echinochloa crus-galli [20]) | Activity (Chenopodium album [21]) | further results
1 | Cc1nc(NCc2ccc(C(F)(F)F)cc2)nc(C(F)(F)F)n1 | 51% | 76% | 51% | 100% | 100% | 76% | 91% | 100% | 100% | 100% | 1% | 91% |  |  |  |  |  |  |  |  | 
2 | CCCc1nc(C)nc(NCc2ccccc2)n1 |  |  |  |  |  |  |  |  |  |  |  |  | 26% | 1% | 26% | 26% | 0% | 0% | 0% | 91% | Activity (Chenopodium album [17]): 0%; Activity (Digitaria ciliaris [22]): 1%; Activity (Echinochloa crus-galli [23]): 1%
3 | Cc1ncnc(NCc2ccccc2)n1 |  |  |  |  |  |  |  |  |  |  |  |  | 0% | 0% | 0% | 51% | 0% | 0% | 0% | 0% | Activity (Chenopodium album [17]): 0%; Activity (Stellaria media [24]): 0%; Activity (Digitaria ciliaris [22]): 0%; Activity (Echinochloa crus-galli [23]): 0%
4 | Cc1nc(NCc2ccccc2Cl)nc(C(F)(F)F)n1 | 1% | 26% | 0% | 76% | 1% | 1% | 76% | 26% | 76% | 0% | 0% | 26% |  |  |  |  |  |  |  |  | 
5 | Cc1nc(NCc2ccc(Br)cc2)nc(C(F)(F)F)n1 | 76% | 91% | 51% | 91% | 91% | 76% | 100% | 100% | 100% | 100% | 26% | 100% |  |  |  |  |  |  |  |  | 
6 | Cc1nc(NCCCc2ccccc2)nc(C(F)(F)F)n1 |  |  |  |  |  |  |  |  |  |  |  |  | 51% | 1% | 51% | 1% | 100% | 100% | 76% | 100% | Activity (Chenopodium album [17]): 76%; Activity (Digitaria ciliaris [22]): 76%; Activity (Echinochloa crus-galli [23]): 91%
7 | Cc1nc(NCc2ccc(F)cc2)nc(C(F)(F)F)n1 | 51% | 91% | 76% | 100% | 76% | 76% | 100% |  | 100% | 91% | 51% | 91% |  |  |  |  |  |  |  |  | 
8 | Cc1nc(NCc2ccccc2)nc(C(F)(F)F)n1 |  |  |  |  |  |  |  |  |  |  |  |  | 91% | 76% | 100% | 76% | 100% | 100% | 100% | 100% | Activity (Digitaria ciliaris [22]): 76%; Activity (Echinochloa crus-galli [23]): 51%
9 | Cc1nc(NCc2ccc(C(C)(C)C)cc2)nc(C(F)(F)F)n1 | 1% | 26% | 26% | 91% | 76% | 26% | 91% | 76% | 100% | 0% | 26% | 91% |  |  |  |  |  |  |  |  | 
10 | COc1ccc(CNc2nc(C)nc(C(F)(F)F)n2)cc1 | 1% | 51% | 26% | 91% | 0% | 76% | 76% | 100% | 100% | 26% | 26% | 76% |  |  |  |  |  |  |  |  | 
11 | Cc1ccc(CNc2nc(C)nc(C(F)(F)F)n2)cc1 | 0% | 26% | 51% | 91% | 1% | 76% | 76% | 91% | 100% | 0% | 1% | 91% |  |  |  |  |  |  |  |  | 
12 | Cc1nc(NCc2ccccc2)nc(-c2ccccc2)n1 |  |  |  |  |  |  |  |  |  |  |  |  | 0% | 0% | 0% | 0% | 0% | 0% | 0% | 0% | Activity (Chenopodium album [17]): 0%; Activity (Stellaria media [24]): 0%; Activity (Digitaria ciliaris [22]): 0%; Activity (Echinochloa crus-galli [23]): 0%
